The text below walks through data of ChEMBL document CHEMBL3785048, “Effects of polar receptor agonists designed for the periphery on ATP-induced Ca2+release from keratinocytes” (Medchemcomm, 2016).

A short description of data set [1]: Distribution coefficient, logD between n-octonol and aqueous MOPS buffer at pH 7.4 by LC-MS analysis detection based shake flask method. Format: physicochemical. The following applies: n-octanol/aqueous MOPS buffer.
A short description of data set [2]: Distribution coefficient, logD between n-octonol and aqueous PBS buffer at pH 5.4 by LC-MS analysis detection based shake flask method. Format: physicochemical. The following applies: n-octanol/aqueous PBS buffer.
Data set [3] deals with CHO-K1. In words: Selectivity index, ratio of Ki for human mu opioid receptor expressed in CHO-K1 cells to Ki for human kappa opioid receptor expressed on HEK-293 cells. Format: cell-based.
Data set [4] concerns the target T1, Kappa-type opioid receptor (Homo sapiens, UniProt P41145). The data set is described as follows: biochemical. Format: cell-based, HEK293.
Description: Displacement of [3H]Cl-977 from human kappa opioid receptor expressed on HEK-293 cells by liquid scintillation counting method
The target in a further data set is Mu-type opioid receptor (Homo sapiens, UniProt P35372). The data set is described as follows: biochemical. In kind it is cell-based, CHO-K1.
Mu-type opioid receptor, sequence (P35372 whole entry): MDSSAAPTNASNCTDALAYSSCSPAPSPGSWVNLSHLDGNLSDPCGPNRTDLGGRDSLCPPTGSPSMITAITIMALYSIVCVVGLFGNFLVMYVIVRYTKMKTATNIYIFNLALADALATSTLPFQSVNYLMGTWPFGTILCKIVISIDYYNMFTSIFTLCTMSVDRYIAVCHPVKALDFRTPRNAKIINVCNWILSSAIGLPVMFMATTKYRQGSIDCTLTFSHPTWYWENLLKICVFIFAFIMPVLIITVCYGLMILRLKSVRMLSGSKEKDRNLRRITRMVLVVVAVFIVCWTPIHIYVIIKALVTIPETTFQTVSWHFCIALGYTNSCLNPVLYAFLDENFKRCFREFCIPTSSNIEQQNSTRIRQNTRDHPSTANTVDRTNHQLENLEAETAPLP
Data set [5] concerns the target Kappa-type opioid receptor (Cavia porcellus, UniProt P41144). In words: Displacement of [3H]U-69,593 from kappa opioid receptor in guinea pig brain membarnes by liquid scintillation counting method. (In a radioligand displacement assay an active substance lowers the binding of a labelled ligand.)
Another data set is filed under the species Sus scrofa. In words: Displacement of [3H]MK-801 from pig N-methyl D-aspartate receptor phencyclidine binding site at 10 uM after 150 min by liquid scintillation counting method.
The test system of data set [6] is CHO-K1. The data set is described as follows: Selectivity index, ratio of Ki for human delta opioid receptor expressed in CHO-K1 cells to Ki for human kappa opioid receptor expressed on HEK-293 cells. In kind it is cell-based.
In data set [7] the target is T1, Kappa-type opioid receptor. The data set is described as follows: Agonist activity at human kappa opioid receptor expressed in HEK-293 cells after 45 mins by [35S]GTP-gamma-S binding assay in presence of 10 uM of GDP relative to U-69,593. Format: cell-based. The following applies: HEK293. Background: GTPγS is a poorly hydrolysed GTP analogue; its binding reports G protein activation.

Data set [8] relates to CHO-K1. In words: Selectivity index, ratio of Ki for human delta opioid receptor expressed in CHO-K1 cells to guinea pig kappa opioid receptor. In kind it is cell-based.
The target in data set [9] is Sigma non-opioid intracellular receptor 1 (Cavia porcellus) (UniProt Q60492). The data set is described as follows: Displacement of [3H]-(+)-pentazocine from guinea pig Sigma1-receptor at 10 uM after 120 mins by liquid scintillation counting method.
Sigma non-opioid intracellular receptor 1 (Cavia porcellus), sequence (Q60492 whole entry): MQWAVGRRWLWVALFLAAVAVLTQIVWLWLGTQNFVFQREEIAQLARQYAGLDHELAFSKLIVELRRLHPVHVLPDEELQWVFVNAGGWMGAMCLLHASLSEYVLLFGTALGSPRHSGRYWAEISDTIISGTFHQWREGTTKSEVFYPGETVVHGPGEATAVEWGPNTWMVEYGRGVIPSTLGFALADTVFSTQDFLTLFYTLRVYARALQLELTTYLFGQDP
Data set [10] has as its target T1, Kappa-type opioid receptor. The data set is described as follows: Agonist activity at kappa opioid receptor in ATP stimulated human HaCaT cells assessed as reduction in intracellular Ca2+ release at 1 uM after 45 mins by FURA-2AM dye based luminescence spectrophotometry method. Format: functional, cell-based.
For another data set, the species on record is Rattus norvegicus. The data set is described as follows: Displacement of [3H]DTG from rat sigma2 receptor at 10 uM after 120 mins by liquid scintillation counting method.
Data set [11] concerns the target Delta-type opioid receptor (Homo sapiens) (UniProt P41143). In words: Displacement of [3H]deltrophine from human delta opioid receptor expressed in CHO-K1 cells at 10 uM after 150 mins by liquid scintillation counting method. Format: cell-based.
Data set [12] relates to CHO-K1. The data set is described as follows: Selectivity index, ratio of Ki for human mu opioid receptor expressed in CHO-K1 cells to guinea pig kappa opioid receptor. In kind it is cell-based.
For data set [13], the target named is T1, Kappa-type opioid receptor. The data set is described as follows: Agonist activity at human kappa opioid receptor expressed in HEK-293 cells after 45 mins by [35S]GTP-gamma-S binding assay in presence of 10 uM of GDP. Format: cell-based, HEK293.

pEC50, pKi: −log10 of the molar value. Active and inactive are the calls of the source. The rule behind the calls is not given here.

T1 sequence (P41145 whole entry): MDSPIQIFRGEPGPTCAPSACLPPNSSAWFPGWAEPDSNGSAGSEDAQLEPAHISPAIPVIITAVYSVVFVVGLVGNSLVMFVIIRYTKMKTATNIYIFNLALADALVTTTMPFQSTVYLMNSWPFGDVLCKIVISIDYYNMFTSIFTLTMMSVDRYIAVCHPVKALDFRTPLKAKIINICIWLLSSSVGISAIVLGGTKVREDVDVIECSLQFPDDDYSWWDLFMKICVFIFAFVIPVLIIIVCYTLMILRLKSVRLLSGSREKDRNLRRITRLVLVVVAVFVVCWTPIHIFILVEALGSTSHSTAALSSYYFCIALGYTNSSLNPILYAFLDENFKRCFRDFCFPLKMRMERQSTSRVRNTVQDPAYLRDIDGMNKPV
Delta-type opioid receptor (Homo sapiens), sequence (P41143 whole entry): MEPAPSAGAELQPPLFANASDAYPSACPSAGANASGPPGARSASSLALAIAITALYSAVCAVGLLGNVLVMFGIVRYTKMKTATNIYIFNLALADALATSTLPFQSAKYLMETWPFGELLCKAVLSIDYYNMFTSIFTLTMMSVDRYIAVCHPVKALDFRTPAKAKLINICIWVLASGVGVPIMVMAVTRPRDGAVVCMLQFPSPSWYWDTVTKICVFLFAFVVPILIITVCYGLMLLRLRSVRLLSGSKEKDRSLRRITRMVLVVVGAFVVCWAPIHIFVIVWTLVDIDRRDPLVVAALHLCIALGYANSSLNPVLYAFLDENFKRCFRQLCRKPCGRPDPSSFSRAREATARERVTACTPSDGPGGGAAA
Kappa-type opioid receptor (Cavia porcellus, UniProt P41144), sequence (P41144 whole entry): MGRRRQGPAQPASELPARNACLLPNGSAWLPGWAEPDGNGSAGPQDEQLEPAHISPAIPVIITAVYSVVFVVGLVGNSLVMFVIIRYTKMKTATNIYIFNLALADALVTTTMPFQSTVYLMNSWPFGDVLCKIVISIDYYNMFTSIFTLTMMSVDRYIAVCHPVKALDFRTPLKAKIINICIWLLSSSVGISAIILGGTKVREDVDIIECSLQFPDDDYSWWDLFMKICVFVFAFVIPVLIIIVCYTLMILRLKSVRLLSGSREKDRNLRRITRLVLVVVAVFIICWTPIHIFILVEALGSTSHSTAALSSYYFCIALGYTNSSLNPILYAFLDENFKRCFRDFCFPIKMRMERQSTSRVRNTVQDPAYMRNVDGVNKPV

For the compound `COC(=O)N1CCN(C(=O)Cc2ccc(Cl)c(Cl)c2)C2C(N3CCCC3)CCCC21` (stereo not drawn), the results for the logD in [1] and in data set [2] were 1.29 and 0.39, respectively.
For `O=C(Cc1ccc(Cl)c(Cl)c1)N1CCN(Cc2cccnc2)C2CCCC(N3CCCC3)C21` (racemic), the Ratio Ki in the data set with CHO-K1 [3] was 100; with CHO-K1 [6] it was 100; in the data set with CHO-K1 [8] it was over 10000; in the data set on CHO-K1 [12], over 10000. Moreover, the pKi (usually the negative decadic logarithm of the Ki, by convention in mol/L) is 7.66 in [4], 5.61 on Mu-type opioid receptor and 9.89 in [5]. Moreover, in the data set filed under Sus scrofa, the inhibition – broadly, the share of the control response that was lost under treatment – was “inactive”. Further, the Intrinsic activity in data set [7] was 100%. The values for the logD in [1] and in data set [2] were 1.1 and -0.45, respectively. The inhibition turned out to be 20% in [9], 1% in the data set listed under Rattus norvegicus and 40% in [11]. Also, the inhibition result in data set [10] is “Active”.
Regarding `CN(C(=O)/C=C/c1ccoc1)[C@@H]1CC[C@@]2(O)[C@H]3Cc4ccc(O)c5c4[C@@]2(CCN3CC2CC2)[C@H]1O5`, the inhibition in data set [10] was found to be 40%.
Turning to `O=C(Cc1ccc(Cl)c(Cl)c1)N1CCNC2CCCC(N3CCC(O)C3)C21` (mixture of isomers), the logD (usually the decadic logarithm of the distribution of all forms, ionised or not, between an organic phase and buffer at a given pH) in data set [1] is 0.23; in data set [2], -2.47.
Take `O=C(Cc1ccc(Cl)c(Cl)c1)N1CCN(Cc2cccnc2)C2CCCC(N3CCC(O)C3)C21` (mixture of isomers): the Ratio Ki in the data set with CHO-K1 [3] turned out to be 100; in the data set on CHO-K1 [6], 100; in the data set on CHO-K1 [8], 1000; in the data set on CHO-K1 [12], 1000. Also, the values for the pKi (in data set [4]; on Mu-type opioid receptor) were 7.51 and 5.46, respectively. For the same compound, the inhibition result in the data set filed under Sus scrofa is “inactive”. In addition, the Intrinsic activity in data set [7] came out at 100%. Besides, the logD in data set [1] was 1.26; in data set [2] it was -0.39. Moreover, the values for the inhibition (in data set [9]; in the data set listed under Rattus norvegicus; in data set [11]) were 10%, 23% and 35%, respectively. Further, in data set [10], the inhibition entry is “Active”.
Consider `COC(=O)N1CCN(C(=O)Cc2ccc(Cl)c(Cl)c2)C2C(N3CCC(O)C3)CCCC21` (mixture of isomers), for which the logD in [1] is 1.31; in data set [2], 0.04. Also, the inhibition result in [10] is “Active”. Further, the pEC50 (commonly −log10 of the EC50, conventionally taken in molar units) in [13] was 7.10.
